Assay results from BindingDB's records for doi:10.1016/j.bmcl.2013.02.064 (Toronto General Research Institute, 2013).
pIC50: −log10 of the molar value.

Test: Inhibition of FCgamma receptor in human PBMC assessed as inhibition of opsonized RBC phagocytosis incubated for 1 hr prior to RBC addition measured after 2 hrs by monocyte monolayer assay

- pIC50: 7.00
SMILES: Cc1cc(SSc2cc(C)nn2-c2ccccc2)n(-c2ccccc2)n1
